In patent US20250368624A1, “M24B AMINOPEPTIDASE INHIBITORS FOR CARD8 INFLAMMASOME ACTIVATION” (Memorial Sloan-Kettering Cancer Center, priority 2022, published 2025):

Tests used:
[1] = system: MV4;11 cells; test: Propidium iodide uptake, MV4;11 cells (WT, CASP1-/-, CARD8-/-); assay type: cell-based; conditions: MV4;11 WT vs CASP1-/- or CARD8-/-, 6.25 μM
Experimental: Propidium iodideflux analysis. 2×10^4 MV4;11 or OCI-AML2 cells were plated in 384-well, black, clear-bottom plate (Corning) in RPMI medium. Cells were then treated as indicated and propidium iodide (PI) was added at a final concentration of 10 μM. PI fluorescence was measured at (Ex/Em: 535/617 nm) recorded at 37° C. every 5 mins in a Cytation 5 Cell Imaging Multi-Mode Reader (BioTek). The obtained measurements were baseline corrected to vehicle/DMSO and normalized to maximum response.

[2] = system: MV4;11 WT cells; test: CellTiter-Glo cell viability, WT MV4;11 cells; assay type: cell-based; conditions: Homo sapiens, MV4-11; 24 h, CTG
How it was run: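 Cells plated at 2,000 per well and treated with compound at varying concentrations for the indicated times. CytoTox-Fluor fluorescence read after 30 min, then CellTiter-Glo added (2 min shaking, 10 min at 25° C) and luminescence recorded.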

[3] = system: OCI-AML2 cells; test: CellTiter-Glo cell viability, OCI-AML2 cells (WT, CARD8-/-); assay type: cell-based; conditions: OCI-AML2 WT vs CARD8-/-, 24 h, CTG
Experimental: CellTiter-Glo cell viability and CytoTox-Fluor cell death assays. Cells were plated (2,000 cells per well) in white, 384-well clear-bottom plates (Corning) using an EL406 Microplate Washer/Dispenser (BioTek) in 25 μL final volume of medium. To the cell plates were added compounds at different concentrations using a pintool (CyBio) and the plates were allowed to incubate in the incubator. After incubation for indicated times, CytoTox-Fluor reagent (Promega, G9262) was added according to the manufacturer's protocol. The assay plates were then incubated for another 30 min before fluorescence was recorded using a Cytation 5 Cell Imaging Multi-Mode Reader (BioTek). Next, CellTiter-Glo reagent (Promega, G7573) was subsequently added to the assay plates following the manufacturer's protocol. Assay plates were shaken on an orbital shaker for 2 min and incubated at 25° C. for 10 min. Luminescence was then read using a Cytation 5 Cell Imaging Multi-Mode Reader (BioTek).

[4] = Stability in cell culture supernatants; assay type: in vitro ADME; conditions: cell culture supernatants
[5] = biological target: XPNPEP1 (Homo sapiens (Human), UniProt Q9NQW7); test: XPNPEP1 substrate assay (H-Lys(abz)-Pro-Pro-pNA); assay type: biochemical; conditions: for IC50: XPNPEP1 3.5 nM, substrate 100 μM, 60 mins
XPNPEP1, sequence (Q9NQW7 whole entry): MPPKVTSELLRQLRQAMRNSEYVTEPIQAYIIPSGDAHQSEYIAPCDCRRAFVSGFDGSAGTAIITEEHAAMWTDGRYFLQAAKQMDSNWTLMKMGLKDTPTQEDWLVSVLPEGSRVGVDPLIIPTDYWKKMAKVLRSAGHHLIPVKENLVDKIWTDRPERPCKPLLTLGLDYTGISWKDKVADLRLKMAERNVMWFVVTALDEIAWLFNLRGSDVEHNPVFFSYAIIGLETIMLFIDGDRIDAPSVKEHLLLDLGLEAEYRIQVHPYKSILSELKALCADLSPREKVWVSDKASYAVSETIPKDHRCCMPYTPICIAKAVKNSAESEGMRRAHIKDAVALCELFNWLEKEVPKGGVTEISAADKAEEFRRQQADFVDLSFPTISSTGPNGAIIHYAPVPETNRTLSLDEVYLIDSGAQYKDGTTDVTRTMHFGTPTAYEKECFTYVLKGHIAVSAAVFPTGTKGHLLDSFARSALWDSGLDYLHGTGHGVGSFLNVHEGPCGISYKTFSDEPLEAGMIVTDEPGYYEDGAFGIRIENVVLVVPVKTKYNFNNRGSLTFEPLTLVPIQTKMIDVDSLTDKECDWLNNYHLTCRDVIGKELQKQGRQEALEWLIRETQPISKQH

[6] = biological target: recombinant human PEPD (Homo sapiens (Human), UniProt P12955); test: PEPD substrate assay (Ala-Pro cleavage, L-alanine assay kit); assay type: biochemical; conditions: for IC50: 50 nM recombinant human PEPD, Ala-Pro 40 μM, 25° C.
recombinant human PEPD, sequence (P12955 whole entry): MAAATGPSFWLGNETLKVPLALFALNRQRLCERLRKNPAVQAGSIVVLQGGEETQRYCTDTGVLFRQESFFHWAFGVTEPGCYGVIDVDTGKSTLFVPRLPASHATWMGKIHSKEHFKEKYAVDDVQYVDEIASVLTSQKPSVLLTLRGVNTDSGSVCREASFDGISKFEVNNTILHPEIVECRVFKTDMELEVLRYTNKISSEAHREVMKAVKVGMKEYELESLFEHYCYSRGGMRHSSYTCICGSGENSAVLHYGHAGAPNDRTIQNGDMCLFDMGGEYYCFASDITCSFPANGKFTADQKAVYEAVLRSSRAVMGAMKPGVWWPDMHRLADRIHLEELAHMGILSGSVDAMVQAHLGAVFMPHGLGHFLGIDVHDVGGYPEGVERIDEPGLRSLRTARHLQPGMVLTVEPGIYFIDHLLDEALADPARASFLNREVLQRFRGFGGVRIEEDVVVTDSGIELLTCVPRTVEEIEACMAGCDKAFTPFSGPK

[7] = system: primary bone marrow-derived macrophages (BMDMs) and mouse RAW264.7 cells; test: LDH release and GSDMD cleavage in BMDMs and RAW264.7 cells (mouse NLRP1); assay type: cell-based; conditions: VbP 10 μM, CQ31/CQ80 20 μM, 24 h
Experimental: Mouse BMDM isolation and culture. Bone marrow was harvested from the femurs and tibias of 7-12-week-old C57BL/6J mice. Briefly, femurs and tibias were harvested from mice and crushed with a mortar and pestle in cold 1×PBS supplemented with 2.5% FBS. The mixture was passed through a 70-μm nylon cell strainer. RBCs were lysed for 4-5 min on ice in 1×RBC lysis buffer (Biolegend) and cells were centrifuged at 300×g for 5 min at 4° C. The cell pellet was washed in cold 1×PBS supplemented with 2.5% FBS before being passed again through in a 70-μm nylon cell strainer and counted. Counted cells were plated on non-tissue culture 10-cm plates at 5-10×10^6 cells per plate in DMEM supplemented with 10% FBS and 15-20% L-cell media. Cells were incubated at 37° C. for 6 days before replating and assaying as indicated.
LDH cytotoxicity and immunoblotting assays. HEK293T cells were transiently transfected and treated with inhibitors as indicated. MV4;11, OCI AML2, THP-1, and RAW264.7 cells were plated in 12-well culture plates at 5×10^5 cells/well and treated as indicated. Supernatants were analyzed for LDH activity using the Pierce LDH Cytotoxicity Assay Kit (Life Technologies). LDH activity was quantified relative to a lysis control where cells were lysed in 80 μL of a 9% Triton X-100 solution. For immunoblotting, cells were washed 2× in PBS (pH=7.4), resuspended in PBS, and lysed by sonication. Protein concentrations were determined and normalized using the DCA Protein Assay kit (Bio-Rad). The samples were separated by SDS-PAGE, immunoblotted, and visualized using the Odyssey Imaging System (Li-Cor).

Structure (SMILES)	PI uptake [1]	IC50 [2] [nM]	cell death [3]	remained intact after 24 h ([4]; 24 h) [%]	IC50 [5] [nM]	IC50 [6] [nM]	pyroptosis (LDH release and GSDMD cleavage) [7]	time to conversion to CQ04 [4] [min]	XPNPEP1 inhibition (in words) [5]	PEPD inhibition (in words) [6]
COC(=O)[C@H](CC(C)C)NC(=O)[C@@H]1CCCN1C(=O)[C@@H](O)[C@H](N)CC(C)C [CQ80, Methyl ((2S,3R)-3-amino-2-hydroxy-5-methylhexanoyl)-L-prolyl-L-leucinate]	induced PI uptake in WT, but not CASP1−/− or CARD8−/−	270	induced cell death in WT, but not CARD8−/−	~50	43000	910	only VbP induced pyroptosis	–	–	–
COC(=O)[C@@H]1CCCN1C(=O)[C@@H](O)[C@H](N)CC(C)C [CQ31]	induced PI uptake in WT, but not CASP1−/− or CARD8−/−	3800	induced cell death in WT, but not CARD8−/−	–	122000	670	only VbP induced pyroptosis	≤ 30	inhibited PEPD and XPNPEP1 inhibitors similarly	inhibited PEPD and XPNPEP1 inhibitors similarly
